Results on five compounds are retold here after BindingDB's records for doi:10.1021/acsmedchemlett.0c00626 (Pipeline Therapeutics, 2021).

For the test, the target named is T1, Muscarinic acetylcholine receptor M1 (Homo sapiens, UniProt P11229).
T1 sequence (P11229 whole entry): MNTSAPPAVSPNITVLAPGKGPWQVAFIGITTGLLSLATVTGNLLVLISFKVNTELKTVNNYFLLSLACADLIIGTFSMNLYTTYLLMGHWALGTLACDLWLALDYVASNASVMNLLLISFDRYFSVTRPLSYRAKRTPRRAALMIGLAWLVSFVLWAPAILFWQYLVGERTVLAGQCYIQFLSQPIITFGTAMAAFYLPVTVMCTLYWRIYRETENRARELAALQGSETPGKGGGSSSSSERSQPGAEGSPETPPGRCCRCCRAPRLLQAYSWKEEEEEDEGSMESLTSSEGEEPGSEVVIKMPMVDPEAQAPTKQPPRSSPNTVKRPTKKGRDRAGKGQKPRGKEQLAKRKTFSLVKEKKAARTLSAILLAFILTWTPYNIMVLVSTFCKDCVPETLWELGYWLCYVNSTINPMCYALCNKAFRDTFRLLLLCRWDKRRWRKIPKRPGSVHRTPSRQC
Kind of test: Antagonist activity at human recombinant muscarinic receptor M1 expressed in CHO-K1 cells assessed as EC80 acetylcholine-induced calcium flux incubated for 30 mins. A general note: Calcium flux is commonly read through the fluorescence of an indicator in the cells.
As for `N#Cc1ccc(N2C3CCC2CN(C(=O)CCS(=O)(=O)c2cccc4ncsc24)C3)nc1`, the IC50 came to 0.0016 µM.

`N#Cc1ccc(N2CC3CCC2CN3C(=O)CCS(=O)(=O)c2cccc3ncsc23)nc1` (stereo not given): the IC50 amounted to 0.032 µM.

Turning to `Cc1cc(F)cnc1N1CCN(C(=O)CCS(=O)(=O)c2cccc3ncsc23)[C@@H](C)C1`, the IC50 was 0.0794 µM.

As for `Cc1cc(F)cnc1N1CCN(C(=O)COCc2cccc3ncsc23)[C@@H](C)C1`, the IC50 stood at 3.98 µM.

Regarding `N#Cc1cnccc1N1CCN(C(=O)CCCc2cccc3ncccc23)CC1`, the IC50 stood at 1.25 µM.

Broadly, the IC50 is the point on the concentration scale where inhibition reaches its midpoint.
